This passage reports fold increase in Dox EC50 and EC50 results from PubChem BioAssay AID844 (SRMLSC, 2007).

Calls of active or inactive are those of the source. How the calls were made is not given here.

The test deals with MRP1 cells, doxorubicin viability shift, 10 uM compound. Kind of test: doxorubicin EC50 increase in MRP-1 cells, dose response, cell-based, doxorubicin EC50 shift (AID 844). Conditions: for EC50: measured here: doxorubicin EC50 with compound.

Take `COc1cc(C(c2sc3ncnn3c2O)N2CCN(c3ccccc3F)CC2)cc(OC)c1OC` (stereo not drawn): the fold increase in Dox EC50 was 0.81 (inactive) and the EC50 is 4.37 µM.
Taken in the same sequence, the figures for `COc1ccc(CCNC(=O)CSCc2ccc(Cl)cc2)cc1OC` were 0.67 (inactive) and 3.59 µM.
For `OCCN=C1CCCc2c1[nH]c1ccc(Br)cc21` the same measures were 0.84 (inactive) and 4.56 µM.
Take `CCN(Cc1ccccc1)C(=O)CSc1nc(C)cc(C)c1C#N`: the fold increase in Dox EC50 is 0.59 (inactive) and the EC50 was 3.19 µM.
Consider `O=C(NCc1ccccn1)c1cc(-c2ccc(-c3ccccc3)cc2)nc2ccccc12`, for which the fold increase in Dox EC50 is 0.57 (inactive) and the EC50 amounted to 3.1 µM.
In the case of `CCN=c1scc(C)n1/N=C/c1ccc(O)c(O)c1O`, the fold increase in Dox EC50 was 0.18 (inactive) and the 50% effective concentration (EC50) came out at 0.985 µM.
Take `CNc1sc(C(=O)c2cccs2)c(N)c1-c1nc2ccccc2s1`: the fold increase in Dox EC50 is 0.56 (inactive) and the EC50 is 3.03 µM.
Taken in the same sequence, the figures for `CCCOc1ccc(CSc2ncn[nH]2)cc1` were 0.89 (inactive) and 4.79 µM.
For `COc1ccc(/C=C2/N=C(SC3CCOC3=O)N(c3cccc(OC)c3)C2=O)cc1` (stereo not drawn) the same measures were 0.68 (inactive) and 3.67 µM.
For `N#Cc1c(-c2cccs2)nc(SCC(=O)c2cccs2)[nH]c1=O` the same measures were 1.12 (inactive) and 6.05 µM.
As for `O=C(NC(=S)Nc1nc(-c2ccccc2)cs1)c1cncc(Br)c1`, the fold increase in Dox EC50 was 0.99 (inactive) and the concentration giving a half-maximal response (EC50) came out at 5.35 µM.
Taken in the same sequence, the figures for `Cc1onc(-c2ccccc2Cl)c1C(=O)OCC(=O)Nc1ccc2c(c1)OCO2` were 1.19 (inactive) and 6.42 µM.
Taken in the same sequence, the figures for `Cc1ccc(C(C)C)c(OCc2nc(-c3nonc3N)no2)c1` were 1.51 and 8.18 µM.
Regarding `CCCCCC(=O)Nc1ccc(S(=O)(=O)Nc2ccc(Cl)nn2)cc1`, the fold increase in Dox EC50 is 1.12 (inactive) and the 50% effective concentration (EC50) was found to be 6.04 µM.
For `CCOc1ccc(Cn2nnc(C(=O)NCCc3ccccc3)c2N)cc1` the same measures were 1.05 (inactive) and 5.65 µM.
For `O=C(NC(=S)Nc1ccccc1N1CCCCC1)c1ccc(-c2cccc([N+](=O)[O-])c2)o1` the same measures were 1.3 (inactive) and 7.02 µM.
Taken in the same sequence, the figures for `Cc1ccccc1NC(=O)CC1SC(=O)N(c2ccccc2)C1=O` (stereo not drawn) were 1.35 (inactive) and 7.29 µM.
As to `O=C(COc1nsnc1N1CCOCC1)N/N=C/c1ccccc1O`, the fold increase in Dox EC50 was 0.26 (inactive) and the EC50 was 1.39 µM.
In the case of `O=C(COc1ccc(F)cc1)Nc1ccc(-n2cnnn2)cc1`, the fold increase in Dox EC50 is 0.75 (inactive) and the EC50 is 4.04 µM.
Taken in the same sequence, the figures for `COc1ccc(NC(=O)COC(=O)c2c3c(nc4ccccc24)CCCC3)cc1Cl` were 0.68 (inactive) and 3.65 µM.
Taken in the same sequence, the figures for `Cc1cc(C(=O)Nc2nnc(C(F)(F)F)s2)no1` were 1.51 and 8.14 µM.
Taken in the same sequence, the figures for `Cc1ccc(C(=O)NNC(=O)c2ccc(SCC3CCCO3)c([N+](=O)[O-])c2)cc1` (stereo not drawn) were 0.56 (inactive) and 3.01 µM.
Regarding `O=[N+]([O-])c1ccc(N/N=C/c2ccccc2)c(F)c1`, the fold increase in Dox EC50 is 0.64 (inactive) and the concentration giving a half-maximal response (EC50) was determined as 3.44 µM.
For the molecule `CCOC(=O)/C(=N\Nc1ccccc1Cl)N1CCN(Cc2ccccc2)CC1`, the fold increase in Dox EC50 is 0.63 (inactive) and the EC50 was 3.43 µM.
As for `CCC(C)Nc1ncnc2c1cnn2Cc1ccc(Cl)cc1` (stereo not drawn), the fold increase in Dox EC50 is 0.84 (inactive) and the EC50 came out at 4.55 µM.
Taken in the same sequence, the figures for `O=C(NC(=S)Nc1ccccc1N1CCOCC1)c1ccc(-c2cc(Cl)ccc2Cl)o1` were 1 (inactive) and 5.42 µM.
For `CCc1nnc(NC(=O)CCC(=O)N2CCN(Cc3ccc(Cl)cc3)CC2)s1` the same measures were 0.76 (inactive) and 4.09 µM.
Taken in the same sequence, the figures for `Cc1ccc(OCc2nnc(SCC(=O)N3c4ccccc4Sc4ccc(Cl)cc43)o2)cc1` were 0.85 (inactive) and 4.57 µM.
Regarding `Cc1cccc(N2CCN(C(=O)c3cc4c(=O)n(C)c5ccccc5c4n3C)CC2)c1C`, the fold increase in Dox EC50 is 0.08 (inactive) and the concentration for a half-maximal effect (EC50) was 0.44 µM.
For `Cc1ccc(N=Nc2c(N)[nH]n3c(=O)cc(-c4ccccc4)nc23)cc1` the same measures were 0.08 (inactive) and 0.452 µM.
In the case of `O=C(NCc1ccc(Cl)cc1)C(=O)NCC1OCCN1C(=O)c1cccs1` (stereo not drawn), the fold increase in Dox EC50 was 1.33 (inactive) and the EC50 turned out to be 7.17 µM.
As for `CC1=NN(C(=O)c2ccc(Cn3nc(C)c(Br)c3C)cc2)C(O)(C(F)(F)F)C1` (stereo not drawn), the fold increase in Dox EC50 was 1.15 (inactive) and the EC50 stood at 6.18 µM.
`CC(NC(=O)C12CC3CC(CC(C3)C1)C2)c1ccc2c(c1)OCCO2` (stereo not drawn): the fold increase in Dox EC50 is 1.06 (inactive) and the EC50 is 5.7 µM.
In the case of `O=C(Cn1c(COc2ccc(Cl)cc2)nc2ccccc21)NCC(F)(F)F`, the fold increase in Dox EC50 is 0.75 (inactive) and the EC50 stood at 4.04 µM.
For `O=C(Nc1ncc(Cc2ccccc2Cl)s1)c1ccc(-c2cccc([N+](=O)[O-])c2)o1` the same measures were 0.81 (inactive) and 4.38 µM.
For `Oc1c(C=C2N=c3ccccc3=N2)sc(=S)n1-c1ccc(F)cc1`, the fold increase in Dox EC50 is 0.63 (inactive) and the EC50 turned out to be 3.39 µM.
For `Cc1nnc(NC(=O)c2c(F)cccc2F)s1` the same measures were 1.23 (inactive) and 6.63 µM.
Taken in the same sequence, the figures for `CC(C)(C)NC(NC(=O)Cc1ccccc1)C(Cl)(Cl)Cl` (stereo not drawn) were 1.07 (inactive) and 5.77 µM.
Taken in the same sequence, the figures for `CCOc1ccc(OCC)c(-c2c(=O)n(OCc3ccc(C(C)(C)C)cc3)c3ccccc3[n+]2[O-])c1` were 0.85 (inactive) and 4.6 µM.
Take `CCOC(=O)c1[nH]c2cc(OC)c(OC)cc2c1N`: the fold increase in Dox EC50 is 0.96 (inactive) and the concentration for a half-maximal effect (EC50) was 5.17 µM.
For `CC1CCC/C(=C(\C#N)c2nc(-c3cc4ccccc4oc3=O)cs2)C1` (stereo not drawn) the same measures were 0.55 (inactive) and 2.96 µM.
For `COc1ccc(CN=C2NC(=O)CC(C(=O)Nc3ccc(F)cc3)S2)cc1` (stereo not drawn) the same measures were 1.01 (inactive) and 5.47 µM.
For `COc1cccc(/C=N/NC(=O)CNC(=O)c2ccc3c(c2)OCCO3)c1O` the same measures were 0.5 (inactive) and 2.71 µM.
For the molecule `N#Cc1nc(COc2cccc(Cl)c2)oc1N1CCCC1`, the fold increase in Dox EC50 is 0.93 (inactive) and the concentration giving a half-maximal response (EC50) was 5.04 µM.
With `CCCCC1S/C(=N/N=C/c2ccc(OC)cc2)N(Cc2ccc(OC)cc2)C1=O` (stereo not drawn), the fold increase in Dox EC50 was 1.18 (inactive) and the EC50 was 6.34 µM.
For `Cc1ccc(NC(=O)CSc2nnc(C)n2-c2ccccc2)cc1` the same measures were 1.61 and 8.71 µM.
For `Cc1ccc(-c2cc(C(F)F)nc(NCc3cccnc3)n2)cc1` the same measures were 0.52 (inactive) and 2.81 µM.
For `CCOC(=O)c1cc(-c2ccccc2)sc1NC(=O)C(C)Sc1nnc(N)s1` (stereo not drawn) the same measures were 0.73 (inactive) and 3.92 µM.
As to `O=c1cc(CN2CCN(c3cccc(Cl)c3)CC2)c2cc3c(cc2o1)CCCC3`, the fold increase in Dox EC50 is 0.74 (inactive) and the EC50 is 3.98 µM.
Taken in the same sequence, the figures for `Cc1noc(/C=C/N(C)C)c1S(=O)(=O)N1CCCC(C(=O)NC2CCCCC2C)C1` (stereo not drawn) were 0.92 (inactive) and 4.98 µM.
Consider `CCOC(=O)CSc1nc(N)nc(C)c1Br`, for which the fold increase in Dox EC50 is 0.78 (inactive) and the EC50 came to 4.2 µM.
Turning to `O=C1OC(Nc2ccccn2)c2ccccc21` (stereo not drawn), the fold increase in Dox EC50 was 0.81 (inactive) and the EC50 came out at 4.35 µM.
On to `CC(/C=C1\SC(=S)N(CCCC(=O)Nc2ccc(C(=O)O)cc2)C1=O)=C\c1ccccc1`, for which the fold increase in Dox EC50 was 0.55 (inactive) and the EC50 came to 2.98 µM.
As to `CC12CCC(c3nnc(SCc4ccc(Cl)cc4)nc31)C2(C)C` (stereo not drawn), the fold increase in Dox EC50 was 1.32 (inactive) and the EC50 amounted to 7.1 µM.
For `CC/C(=N\NC(=O)C(N)=O)c1ccccc1O` the same measures were 0.61 (inactive) and 3.29 µM.
Taken in the same sequence, the figures for `COc1ccccc1-c1nnc(SC2CCc3ccccc3NC2=O)s1` (stereo not drawn) were 0.55 (inactive) and 2.98 µM.
For `CCSc1nnc(-c2ccc(C)cc2)c2ccccc12` the same measures were 0.61 (inactive) and 3.3 µM.
For the molecule `O=C(O)/C=C\C(=O)NC1CCCCC1`, the fold increase in Dox EC50 was 0.68 (inactive) and the EC50 was determined as 3.67 µM.
Taken in the same sequence, the figures for `Cc1cccc(C)c1N=Cc1c(O)n(-c2nccs2)c(=O)c2ccccc12` were 0.6 (inactive) and 3.22 µM.
As for `O=C(Nc1ccn(Cc2ccccc2F)n1)c1ccc(COc2ccc(Cl)cc2Cl)o1`, the fold increase in Dox EC50 is 0.95 (inactive) and the EC50 was 5.15 µM.
For `Cc1cc(C)c(S(C)(=O)=O)c(Sc2ccc(Cl)cc2)n1`, the fold increase in Dox EC50 is 0.81 (inactive) and the EC50 turned out to be 4.38 µM.
Taken in the same sequence, the figures for `O=C(Nc1nc(=O)n(C(=O)C2CC2)s1)c1ccccc1` were 0.55 (inactive) and 2.97 µM.
Consider `O=C(Nc1ccc(O)cc1)C1CCCO1` (stereo not drawn), for which the fold increase in Dox EC50 was 0.91 (inactive) and the EC50 came to 4.92 µM.
Taken in the same sequence, the figures for `CCN(CC)S(=O)(=O)c1cc(NC(=O)C(=O)c2c(-c3ccccc3)cc3ccccn23)ccc1C` were 1.28 (inactive) and 6.91 µM.

The term EC50 denotes the midpoint of the concentration-response curve.
